Patent publication US6677307B2, “TGF-α polypeptides, functional fragments and methods of use therefor” (Kaleidos Pharma, Inc., priority 1999, dated 2004)

Columns and labels:
[1] = system: kidney tissue (primarily glomeruli); assay: Cis-platinum kidney damage, H&E kidney histology; format: in vivo; conditions: mice; CP 10 mg/kg ip; 10 μg/kg 6 hours prior to CP and 24 and 48 hours after CP
Method: In addition, administration of a TGF-α polypeptide, fragments, and mimetic to regenerate damaged tissue, for example, in kidney, an organ sensitive to such damage, is also disclosed herein. In an in vivo experiment, mice were administered 10 mg/kg of Cis-platinum as a single ip injection and treated mice administered 10 μg/kg a human TGF-α57 (R&D Systems, Minneapolis, Minn.). TGF-α57 was administered just before CP and in two additional doses after, by ip administration for a general systemic effect. Several organs or tissues were collected from the animals sacrificed 4 days after CP dose (or saline for no TGFα57) and tissues were examined histologically.
The cuboidal epithelium of the proximal convuluted tubule was also damaged.

mouse intestines = assay: histological examination of intestines of CP-treated mice; format: in vivo
Method: The experiment procedure dosed those animals to be treated with TGFα 57 4 hours prior to challenge with CP. A single dose of CP was administered. Additional doses (as indicated) of TGFα 57 were made at 24 hours, 48 hours, 72 hours and 96 hours after the CP dose. All doses were made by IP injection. Controls were dosed with saline instead of either or both of CP and TGF-α57.
The animals were sacrificed about 4 hours after the last TGF-α57 (or saline) dose. Key organs were removed and spleens were immediately weighed after a clean incision. All the relevant organs were placed in formalin, transported for histopathological analysis, mounted, sectioned, stained and observed. The results of this histological analysis of the spleens for hematopoietic effect and the GI tract (below) provided surprising and unexpected data of the effect of TGF-α57 activity.
TGFα or a peptide from formula I, formula II, formula III, formula IV, formula V, or formula VI having TGFα activity or combinations thereof are also useful for treating mucositis associated intestinal bleeding, dyspepsia caused by with cytotoxic therapy and for improving the barrier function of the GI tract compromised by cytotoxic therapy. The in vivo experiment with seven groups of mice described above for hematopoietic effects noted in spleens also examined the GI tract of these treated mice. […] A single row of intestinal crypt is found at the base of the mucosa. These crypts that lie between adjacent villi are surrounded by the same lamina propria that form the villous cores. Both columnar absorptive cells and goblet cells cover the villous surfaces. The goblet cells contain apical clear vacuoles. […] Specifically, the villus was long and slender. Both absorptive cells and goblet cells were visible at the surface of the villi, and there was an abundant amount of goblet cells on the surface.
A 160×magnification of the intestines of a CP-treated mouse, a normal mouse and a CP treated and TGFα57 treated mouse at the same doses as described above. […] The crypts were irregularly shaped and in had various heights. […] The crypts also appeared normal.
Red cells were visible at the damaged surface indicating intestinal bleeding. […] Globlet cells appeared interspersed, necrotic and fewer in number than normal. […] Specifically, the epithelial cells appeared normal with extended brush borders. The nuclei were very densely stained and elongated.
The histological data is summarized in FIG. 4 that measured average crypt height of the three groups of mice.
An alcian blue staining method permitted differentiation of absorptive cells and goblet cells. Goblet cell mucus is stained a blue color while the absorptive cells remain less stained. […] In the normal intestine each villus extended from the luminal surface to the basal muscularis mucosal surface. Goblet cells were scattered and predominated in the base of the villus whereas columnar absorptive cells lined the luminal surface. […] The injured absorptive and goblet cells were degenerating at the tip of the villi and abundant secretory mucus material was stained in the luminal surface. In the CP/TGF-α mouse, there were an increased number of goblet cells scattered throughout the villi. The intestinal villi appeared normal with elongation. […] The luminal plasma membranes of the villi were well protected by TGF-α treatment. The number of goblet cells was counted on the average unit length of intestine.

[2] = system: immune cells (T cell lineage), mast cells; assay: immune cells, mast cells and cytokines in vivo after CP; design: species or system mice; conditions: mice after immune-suppression by CP; lymphoid tissue, Peyers Patches, spleen
From the text: The stimulated immune cells were phenotypically identified as CD4 positive T cells and double null CD4 negative CD8 negative T cell progenitors. […] The in vivo activity of TGFα (and the functional peptides of formula I, formula II, formula III, and formula IV) to stimulate early T cell progenitors in the release of TH-1 and TH-2 cytokines and this regulation of immune phenomena. The stimulation of select immune cells, in particular cells of a T cell lineage, was seen consistently in the mice who received CP and TGF-α57 in lymphoid tissue, Peyers Patches and the spleen. Further, recruitment of help via CD4 cells in some cases boosts immune system function in general.
This is a parallel activity that is in addition to the gastrointestinal anti-inflammatory activity and prevention of mucositis of TGFα (and the functional peptides of formula I, formula II, formula III, and […]) described herein.

TGF-α57: 57 amino acid polypeptide of formula VI: Ser-Leu-Ser-Leu-Pro-Ala-Met-Human TGFα
glomeruli damage (H&E kidney histology) [1]: essentially protected the glomeruli from damage | intestinal structure (cross section histology) (mouse intestines; CP 10 mg/kg and 50 μg/kg): intestinal structure was very similar to the normal intestinal structure | number of goblet cells on the average unit length of intestine (alcian blue) (mouse intestines; CP 10 mg/kg and 50 μg/kg): increased the number from CP treatment to a higher level than normal intestine | villa surface, higher magnification (mouse intestines; CP 10 mg/kg and 50 μg/kg): protection of the villa surface | villi and crypts, 160× magnification (mouse intestines; CP 10 mg/kg and 50 μg/kg): normal appearing villi | average crypt height (mouse intestines; CP treatment, 50 μg/kg, FIG. 4): more-than-restore crypt height loss | proliferation of select immune cells (T cell lineage) [2]: stimulation of proliferation of select immune cells
